Results as given in the supplement of paper PMC13207355.

Experiments:
Conditions in all cases: exposure time: 72 h
E28 [1] = patient-derived glioblastoma stem cells of classical subtype; assay: surviving fraction (nuclei count normalised to DMSO); higher = more cells surviving (less toxic)
E57 [2] = patient-derived glioblastoma stem cells of mesenchymal subtype; assay: as above
E31 [3] = patient-derived glioblastoma stem cells of proneural subtype; assay: as above
E34 [4] = patient-derived glioblastoma stem cells of proneural subtype; assay: as above
E13 [5] = patient-derived glioblastoma stem cells of classical subtype; assay: as above
E21 [6] = patient-derived glioblastoma stem cells of mesenchymal subtype; assay: as above
FT3469 [7] = normal neural stem cell line; assay: as above
E28 [8] = assay: phenotypic distance (Euclidean, principal components) from DMSO controls (arbitrary units); higher = stronger morphological change
E57 [9] = assay: as above
E31 [10] = assay: as above
E34 [11] = assay: as above
E13 [12] = assay: as above
E21 [13] = assay: as above
FT3469 [14] = assay: as above
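Throughout, for phenotypic distance (Euclidean, principal components) from DMSO controls: cell Painting imaging in 384-well plates, CellProfiler features reduced to at least 20 principal components, Euclidean distance versus same-plate DMSO vehicle wells (0.1% v/v), median over six images per well.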
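Throughout, for surviving fraction (nuclei count normalised to DMSO): nuclei counted by high-content imaging of Hoechst-stained cells in laminin-coated 384-well plates, relative to 0.1% DMSO vehicle wells, with staurosporine as cell-death control.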

Nc1ncn(C2OC(CO)C(O)C2O)c(=O)n1 (stereo not drawn) [Azacytidine-5]
Conditions | phenotypic distance | surviving fraction
E13 [5], 4.1 nM | – | 0.948
E13 [5], 12.3 nM | – | 0.902
E13 [5], 37 nM | – | 0.957
E13 [5], 111.1 nM | – | 1
E13 [5], 333.3 nM | – | 1.01
E13 [5], 1000 nM | – | 0.894
E13 [5], 3000 nM | – | 0.634
E13 [12], 4.1 nM | 0.774 | –
E13 [12], 12.3 nM | 0.925 | –
E13 [12], 37 nM | 0.631 | –
E13 [12], 111.1 nM | 1.16 | –
E13 [12], 333.3 nM | 1.01 | –
E13 [12], 1000 nM | 2.56 | –
E13 [12], 3000 nM | 4.39 | –
E21 [6], 4.1 nM | – | 0.945
E21 [6], 12.3 nM | – | 0.932
E21 [6], 37 nM | – | 1.07
E21 [6], 111.1 nM | – | 0.892
E21 [6], 333.3 nM | – | 0.978
E21 [6], 1000 nM | – | 0.779
E21 [6], 3000 nM | – | 0.634
E21 [13], 4.1 nM | 1.45 | –
E21 [13], 12.3 nM | 0.512 | –
E21 [13], 37 nM | 0.843 | –
E21 [13], 111.1 nM | 1.36 | –
E21 [13], 333.3 nM | 1.28 | –
E21 [13], 1000 nM | 1.92 | –
E21 [13], 3000 nM | 2.82 | –
E28 [1], 4.1 nM | – | 0.969
E28 [1], 12.3 nM | – | 1.09
E28 [1], 37 nM | – | 0.969
E28 [1], 111.1 nM | – | 1.1
E28 [1], 333.3 nM | – | 0.952
E28 [1], 1000 nM | – | 1.15
E28 [1], 3000 nM | – | 0.764
E28 [8], 4.1 nM | 0.577 | –
E28 [8], 12.3 nM | 0.65 | –
E28 [8], 37 nM | 0.956 | –
E28 [8], 111.1 nM | 0.825 | –
E28 [8], 333.3 nM | 3.86 | –
E28 [8], 1000 nM | 0.76 | –
E28 [8], 3000 nM | 1.01 | –
E31 [3], 4.1 nM | – | 0.962
E31 [3], 12.3 nM | – | 0.827
E31 [3], 37 nM | – | 0.96
E31 [3], 111.1 nM | – | 0.986
E31 [3], 333.3 nM | – | 1.04
E31 [3], 1000 nM | – | 0.731
E31 [3], 3000 nM | – | 0.439
E31 [10], 4.1 nM | 0.548 | –
E31 [10], 12.3 nM | 0.901 | –
E31 [10], 37 nM | 0.564 | –
E31 [10], 111.1 nM | 0.874 | –
E31 [10], 333.3 nM | 1.27 | –
E31 [10], 1000 nM | 1.11 | –
E31 [10], 3000 nM | 2.48 | –
E34 [4], 4.1 nM | – | 0.935
E34 [4], 12.3 nM | – | 0.979
E34 [4], 37 nM | – | 0.89
E34 [4], 111.1 nM | – | 1.09
E34 [4], 333.3 nM | – | 1.04
E34 [4], 1000 nM | – | 0.914
E34 [4], 3000 nM | – | 0.858
E34 [11], 4.1 nM | 0.787 | –
E34 [11], 12.3 nM | 0.546 | –
E34 [11], 37 nM | 0.387 | –
E34 [11], 111.1 nM | 0.835 | –
E34 [11], 333.3 nM | 0.732 | –
E34 [11], 1000 nM | 0.672 | –
E34 [11], 3000 nM | 1.24 | –
E57 [2], 4.1 nM | – | 0.979
E57 [2], 12.3 nM | – | 1.09
E57 [2], 37 nM | – | 0.948
E57 [2], 111.1 nM | – | 0.974
E57 [2], 333.3 nM | – | 0.859
E57 [2], 1000 nM | – | 0.702
E57 [2], 3000 nM | – | 0.411
E57 [9], 4.1 nM | 0.265 | –
E57 [9], 12.3 nM | 1.15 | –
E57 [9], 37 nM | 0.6 | –
E57 [9], 111.1 nM | 0.593 | –
E57 [9], 333.3 nM | 1.38 | –
E57 [9], 1000 nM | 2.03 | –
E57 [9], 3000 nM | 3.86 | –
FT3469 [7], 4.1 nM | – | 0.953
FT3469 [7], 12.3 nM | – | 1
FT3469 [7], 37 nM | – | 1.1
FT3469 [7], 111.1 nM | – | 0.935
FT3469 [7], 333.3 nM | – | 0.809
FT3469 [7], 1000 nM | – | 1.04
FT3469 [7], 3000 nM | – | 0.906
FT3469 [14], 4.1 nM | 0.816 | –
FT3469 [14], 12.3 nM | 0.612 | –
FT3469 [14], 37 nM | 0.486 | –
FT3469 [14], 111.1 nM | 1.17 | –
FT3469 [14], 333.3 nM | 0.757 | –
FT3469 [14], 1000 nM | 0.865 | –
FT3469 [14], 3000 nM | 1.77 | –
